From publication PMC10820861, “Furofuranoid-Type Lignans and Related Phenolics from Anisacanthus virgularis (Salisb.) Nees with Promising Anticholinesterase and Anti-Ageing Properties: A Study Supported by Molecular Modelling” (Plants, 2024)
Several values for one entry are separate records, joined by “and”; a condition that tells them apart may be missing. Identical values can stand only once. Like-named read-outs stand apart in the source and are kept apart here.

How the values were obtained:
TERT = TERT enzyme (telomerase activation) assay in normal melanocyte HFB4 cells; format: cell-based, human; conditions: 1 μM; for TERT Concentration Mean ± SD / Relative Increase (TERT vs untreated HFB4 control): 24 h; for Relative Increase (TERT vs untreated HFB4 control): control = 1
Method: In the present study, we assessed the in vitro anti-ageing activity of the lignan-type compounds 1–5 utilizing a TERT enzyme assay (Table 3). The normal melanocyte cell line (HFB4) was used as a model system in this study, and curcumin (1 μM) was used as a standard telomerase activator [47]. According to the report, curcumin has made it possible for model organisms to live longer, reduced the signs of ageing, and slowed the onset of age-related illnesses where cellular senescence is a direct cause.
TERT activity assay was used for in vitro investigation of the compound’s anti-ageing properties. The HFB4 (VACSERA, Giza, Egypt) was used as a model system for the study of amplification of telomers in response to our test compounds and curcumin. HFB4 cells were cultivated in RPMI-1640 medium enriched with heat-inactivated FBS (10%) and penicillin–streptomycin (100 U/mL). HFB4 cells (2 × 10^5) were plated and incubated in a 5% CO2 humidified atmosphere at 37 °C for 24 h. The cells were then left untreated (negative control), treated with tested compounds and with 1 μM curcumin, a standard activator for TERT. The supernatant from the various conditions was collected after 24 h, centrifuged for 20 min at 1000× g at 4 ℃, and immediately submitted for the assay as previously described. The different supernatants were added separately to a microtiter plate pre-coated with a TERT-specific antibody (Ab) and then incubated with a TERT-specific biotin detection Ab. Then, streptavidin/horseradish peroxidase (SABC) conjugate was added to all wells and incubated. […] The optical density (OD) was measured spectrophotometrically at 450 nm. The TERT concentration was determined by comparing the OD of the samples with the standard curve prepared according to the instructions of the manufacturer. The relative OD450 = (OD450 of the reaction well) − (OD450 of no treatment well). The standard curve was plotted by drawing the relative OD450 of each standard solution (Y) versus the respective concentration of the standard solution (X). The human TERT concentration of the samples was interpolated from the standard curve.

AChE = target: T1, AChE (Electrophorus electricus, UniProt O42275); assay: biochemical; conditions: for IC50 / % Inhibition of AChE: mean ± SD; for inhibition at 0.01 µM / inhibition at 0.1 µM / inhibition at 1 µM / inhibition at 10 µM: read-out: % Inhibition of AChE
T1 construct: purchased
Method: The preparation of the sample was the same as has been previously described. The AChE-inhibitory effect of the furofuranoid lignans 1–5 was determined using an AChE inhibitor screening kit (the Quanti-Chrome assay kit). […] The 96-well plate reaction was prepared according to the manufacturer’s protocol.

AChE enzyme = tested on: AChE enzyme; set-up: method as in doi:10.25135/rnp.71.17.04.074; conditions: 250 µg/mL; cited from earlier work
[1] = tested on: butyrylcholinesterase enzyme; set-up: method as in doi:10.25135/rnp.71.17.04.074; conditions: 250 µg/mL; cited from earlier work
neuro2a cells = tested on: neuro2a cells; set-up: method as in PMID 30685474; conditions: cited from earlier work
[2] = tested on: hippocampal long-term potentiation; set-up: method as in PMID 30685474; conditions: 50 μM; cited from earlier work
acetylcholinesterase = conditions: concentration-dependent; cited from earlier work
memory decline = conditions: 25 mg/kg, p.o.; dose-dependent; cited from earlier work
[3] = read-out: IC50 (AChE inhibition)

T1 sequence (O42275 24-633): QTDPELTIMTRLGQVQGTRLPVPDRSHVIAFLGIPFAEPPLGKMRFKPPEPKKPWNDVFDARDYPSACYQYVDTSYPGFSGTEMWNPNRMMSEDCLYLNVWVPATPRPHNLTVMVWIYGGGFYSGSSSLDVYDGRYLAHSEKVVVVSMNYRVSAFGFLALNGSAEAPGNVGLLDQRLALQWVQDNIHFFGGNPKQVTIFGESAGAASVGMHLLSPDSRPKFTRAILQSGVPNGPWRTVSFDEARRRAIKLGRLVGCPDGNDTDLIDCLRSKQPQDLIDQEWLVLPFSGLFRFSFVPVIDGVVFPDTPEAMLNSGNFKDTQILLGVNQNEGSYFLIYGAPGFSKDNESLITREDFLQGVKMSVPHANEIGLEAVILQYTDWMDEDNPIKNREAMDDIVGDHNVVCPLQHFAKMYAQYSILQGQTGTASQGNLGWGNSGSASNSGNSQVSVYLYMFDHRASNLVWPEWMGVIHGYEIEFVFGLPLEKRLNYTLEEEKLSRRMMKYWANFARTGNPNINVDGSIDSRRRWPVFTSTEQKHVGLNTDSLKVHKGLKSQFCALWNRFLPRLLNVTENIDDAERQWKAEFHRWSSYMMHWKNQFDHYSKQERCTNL

With `COc1cc(/C=C/C(=O)CC(=O)/C=C/c2ccc(O)c(OC)c2)ccc1O` [Curcumin, curcumin, reference compound] the “increase in telomerase activity compared to untreated cells” value (“increase in telomerase activity” for short) (TERT) was 1.62 fold, the “TERT Concentration Mean ± SD” value (TERT) was 2.8 ± 0.03 ng/mL and the “Relative Increase (TERT vs untreated HFB4 control)” value (“Relative Increase” for short) (TERT) was 1.62.

For `COc1cc([C@H]2OC[C@H]3[C@@H]2CO[C@@H]3c2cc(OC)c3c(c2)[C@H](CO)[C@@H](c2ccc(O[C@@H]4O[C@H](CO)[C@@H](O)[C@H](O)[C@H]4O)c(OC)c2)O3)ccc1O` [Compound 1, anisacanthin], the “increase in telomerase activity” value (TERT) was 1.64 fold, the “TERT Concentration Mean ± SD” value (TERT) was 2.8 ± 0.04 ng/mL and the “Relative Increase” value (TERT) was 1.64. The IC50 (AChE; [3]) was 85 nM, the inhibition at 0.01 µM (AChE) was 24 ± 1% and the inhibition at 0.1 µM (AChE) was 61 ± 1%. It also gave an inhibition at 1 µM (AChE) of 75 ± 2% and an inhibition at 10 µM (AChE) of 83 ± 2%.

In the case of `COc1cc([C@H]2OC[C@H]3[C@@H]2CO[C@@H]3c2ccc(O[C@@H]3O[C@H](CO)[C@@H](O)[C@H](O)[C@H]3O)c(OC)c2)ccc1O` [Compound 5, pinoresinol 4-O-β-D-glucoside], the “inhibitory effect on the AChE enzyme” value (AChE enzyme) is given as 20.17 ± 0.44%, the “increase in telomerase activity” value (TERT) is given as 1.66 fold and the “TERT Concentration Mean ± SD” value (TERT) is given as 2.8 ± 0.09 ng/mL. For the same molecule, the “Relative Increase” value (TERT) was 1.66, the IC50 (AChE; [3]) was 64.5 nM and 64 nM and the inhibition at 0.01 µM (AChE) was 28 ± 3%. For the same molecule, the inhibition at 0.1 µM (AChE) was 59 ± 4%, the inhibition at 1 µM (AChE) was 79 ± 1% and the inhibition at 10 µM (AChE) was 88 ± 3%. The “inhibitory effect on the butyrylcholinesterase enzyme” value [1] was 11.02 ± 0.35%.

In the case of `COc1cc([C@H]2OC[C@H]3[C@@H]2CO[C@@H]3c2ccc(O)c(OC)c2)ccc1O` (relative stereo) [Compound 2, pinoresinol], the “effect on calcium influx” value (neuro2a cells) is given as “aided calcium influx into neuro2a cells”, the “effect on induction of hippocampal long-term potentiation” value [2] is given as “aided the induction of hippocampal long-term potentiation” and the “increase in telomerase activity” value (TERT) is given as “a little weak”. For the same molecule, the “TERT Concentration Mean ± SD” value (TERT) was 2.2 ± 0.03 ng/mL, the “Relative Increase” value (TERT) was 1.28 and the “effect on acetylcholinesterase activity” value (acetylcholinesterase) was “inhibited the activity of acetylcholinesterase in a concentration-dependent manner”. For the same molecule, the “effect on memory decline in dementia model” value (memory decline) was “improved memory decline”, the IC50 (AChE; IC50 (AChE inhibition)) was 292 ± 9 nM and the inhibition at 0.01 µM (AChE) was 26 ± 1%. The inhibition at 0.1 µM (AChE) was 41 ± 1%, the inhibition at 1 µM (AChE) was 60 ± 3% and the inhibition at 10 µM (AChE) was 75 ± 2%.

For phillyrin [Compound 4], the “increase in telomerase activity” value (TERT) was 1.72 fold and 1.71 fold, the “TERT Concentration Mean ± SD” value (TERT) was 2.9 ± 0.06 ng/mL and the “Relative Increase” value (TERT) was 1.72. For the same molecule, the “% Inhibition of AChE” value (AChE; 0.01 µM) was 26 ± 3%, the “% Inhibition of AChE” value (AChE; 0.1 µM) was 41 ± 2% and the “% Inhibition of AChE” value (AChE; 1 µM) was 64 ± 2%. For the same molecule, the “% Inhibition of AChE” value (AChE; 10 µM) was 73 ± 2%.

For `COc1cc([C@H]2OC[C@H]3[C@@H]2CO[C@H]3c2ccc(O)c(OC)c2)ccc1O` (relative stereo) [Compound 3, epipinoresinol], the “increase in telomerase activity” value (TERT) was “a little weak”, the “TERT Concentration Mean ± SD” value (TERT) was 2.0 ± 0.06 ng/mL and the “Relative Increase” value (TERT) was 1.18. It also gave an IC50 (AChE; IC50 (AChE inhibition)) of 242 ± 9 nM, an inhibition at 0.01 µM (AChE) of 23 ± 1% and an inhibition at 0.1 µM (AChE) of 44 ± 1%. For the same molecule, the inhibition at 1 µM (AChE) was 60 ± 2% and the inhibition at 10 µM (AChE) was 82 ± 3%.
